{"source": "ChEMBL document CHEMBL1148168", "about": "“The structures of aplysinamisines I, II, and III; new bromotyrosine-derived alkaloids from the Caribbean sponge Aplysina cauliformis” (J Nat Prod, 1993)", "key": {"[1]": {"tested_on": "Pseudomonas aeruginosa", "assay": "Antimicrobial activity against Pseudomonas aeruginosa at 50 to 100 ug/disk", "type": "functional, organism-based"}, "[2]": {"tested_on": "Escherichia coli", "assay": "Antimicrobial activity against Escherichia coli at 50 to 100 ug/disk", "type": "functional, organism-based"}, "[3]": {"tested_on": "MCF7", "assay": "Cytotoxicity against human MCF7 cells", "type": "functional, cell-based"}, "[4]": {"tested_on": "Staphylococcus aureus", "assay": "Antimicrobial activity against Staphylococcus aureus at 50 to 100 ug/disk", "type": "functional, organism-based"}, "[5]": {"tested_on": "CCRF-CEM", "assay": "Cytotoxicity against human CCRF-CEM cells", "type": "functional, cell-based"}, "[6]": {"tested_on": "HCT-116", "assay": "Cytotoxicity against human HCT116 cells", "type": "functional, cell-based"}}, "note": "Calls of active or inactive are those of the source. No cut-off for these calls is given here.", "data": [{"smiles": "COC1=C(Br)[C@H](O)[C@@]2(C=C1Br)CC(C(=O)NCCCOc1c(Br)cc(C(O)CNC(C)=O)cc1Br)=NO2", "note": "(some centres not stated) [APLYSINAMISINE III]", "values": [{"measurement": "Activity", "setting": "[1]", "result": "Active"}, {"measurement": "Activity", "setting": "[2]", "result": "Active"}, {"measurement": "IC50", "setting": "[3]", "result": 30, "unit": "µg/mL"}, {"measurement": "Activity", "setting": "[4]", "result": "Active"}, {"measurement": "IC50", "setting": "[5]", "result": 6, "unit": "µg/mL"}, {"measurement": "IC50", "setting": "[6]", "result": 10, "unit": "µg/mL"}]}, {"smiles": "COC1=C(Br)[C@H](O)[C@@]2(C=C1Br)CC(C(=O)NCCCCCNC(=N)N)=NO2", "note": "[APLYSINAMISINE II]", "values": [{"measurement": "Activity", "setting": "[1]", "result": "Active"}, {"measurement": "Activity", "setting": "[2]", "result": "Active"}, {"measurement": "IC50", "setting": "[3]", "result": "> 50", "unit": "µg/mL"}, {"measurement": "Activity", "setting": "[4]", "result": "Active"}, {"measurement": "IC50", "setting": "[5]", "result": "> 50", "unit": "µg/mL"}, {"measurement": "IC50", "setting": "[6]", "result": 10, "unit": "µg/mL"}]}, {"smiles": "COC1=C(Br)[C@H](O)[C@@]2(C=C1Br)CC(C(=O)NC/C=C\\c1c[nH]c(N)n1)=NO2", "note": "[APLYSINAMISINE I]", "values": [{"measurement": "Activity", "setting": "[1]", "result": "Active"}, {"measurement": "Activity", "setting": "[2]", "result": "Active"}, {"measurement": "IC50", "setting": "[3]", "result": "> 50", "unit": "µg/mL"}, {"measurement": "Activity", "setting": "[4]", "result": "Active"}, {"measurement": "IC50", "setting": "[5]", "result": "> 50", "unit": "µg/mL"}]}]}
